# Paper PMC10728220, “Novel 3-(pyrazol-4-yl)-2-(1H-indole-3-carbonyl)acrylonitrile derivatives induce intrinsic and extrinsic apoptotic death mediated P53 in HCT116 colon carcinoma” (Scientific Reports, 2023)
# Entries after “also recorded” stand apart in the source; their conditions may differ.
# Assays:
# Assay type in all cases: cell-based, human
# [1] = system: colorectal carcinoma (HCT116); assay: Cytotoxic MTT assay, HCT116
# Method: MTT protocol was performed to study the viability of cells after treatment with the tested compounds. The studied cell lines (A549 and HCT116) were cultured and grown in RPMI‐1640 media, while HFB4 cells were reserved in DMEM‐F12 media. Both media were supplemented with 10% FBS, 1% L‐glutamine, and 1% antibiotic–antimycotic mixture. The cell lines were grown at conditions of 37 °C and 5% CO2. 10 × 10^3 of A549, and HCT116 cells and the same count of normal melanocytes (HFB4) were cultured in a 96‐well plate. The selected cultured cells were kept at 37°C and 5% CO2 overnight. Then, the medium was discarded after 24 h of incubation, and 100 µL from different concentrations of the studied compounds dissolved in fresh medium without serum, with final concentrations of 100, 50, 25, 12.5, 6.25, 3.125, 1.56, and 0.78 µg/mL was added. The treated cells were then incubated for 48 h. After that, 50 µL of MTT was added into each well for 4 h for the formazan crystals to be formed. Finally, 200 µl of 10% sodium dodecyl sulphate (SDS) was added to each well, and plates were kept at room temperature overnight to allow the reaction to be stopped. The optical density at 575 nm was read using a microplate multi-well reader, and the percentage of cell viability was calculated. The dose–response curve was drawn to calculate the IC50 values for each compound using the prism GraphPad 5 program, [84]. 5 Fluorouracil, a commercial anticancer drug was used as a reference drug (positive control). Negative untreated cell control was used in this assay.
# [2] = system: HCT116 cells; assay: Flow cytometric analysis of cell cycle; conditions: HCT116, 6.76 µg/mL, 48 h
# Method: (§1) Chalcone 7f was selected for more investigations, in attempts to find its molecular action on cancer cells. It illustrated high and very interesting cytotoxicity toward the tested colon cancer cell line (HCT116) as mentioned in the above MTT assay data (Table 1). A flow cytometric report was utilized in this recent paper to investigate the effect of our novel acrylonitrile compound 7f on the cell cycle, HCT116 cells were treated with compound 7f at a dose of (6.76 µg/mL) for 48 h and subjected to flow cytometric analysis.
# In this study, non-treated HCT116 cells were used as a negative control. After the incubation period of 48 h, HCT116 treated cells were centrifuged at 1,200 rpm at 4 °C for 10 min. After disposing of the supernatant, the cell pellet was suspended in phosphate-buffered saline (PBS) and then centrifuged at 1200 rpm for 10 min. 70% cold ethanol was added overnight to allow the fixation of the cell pellet. After the step of centrifugation, the propidium iodide (PI) mixture was added to the cell pellet for 30 min at room temperature in the darkness. Subsequently, cells were subjected to Epics XL-MCL flow cytometer (BeckmanCoulter, Miami, FL) for analysis of DNA content. The percentage of cells in different phases of the cell cycle was analyzed by Multicycle software (Phoenix Flow Systems, San Diego, CA).
# [3] = system: HCT116 cells; assay: Flow cytometric analysis of apoptosis (Annexin V-FITC/PI); conditions: HCT116, 7f treated
# Method: as §1
# The percentage of apoptotic cells was detected using Annexin V-FITC kit catalogue number (#K101-25). Briefly, 5 × 10^5 of HCT116 cells were collected by centrifugation. Then, the cell pellet was suspended in 500 µL of 1X Binding Buffer. Afterward, 5 µL of Annexin V-FITC and 5 µL of propidium iodide were added to cells and kept at room temperature for 5 min in the dark[89]–[91]. Finally, the percentage of the apoptotic cells was detected by flow cytometry using the FITC signal detector(usually FL-1) and PI staining by the phycoerythrin emission signal detector (usually FL-2).
# [4] = system: HCT116 cells; assay: DNA fragmentation, agarose gel electrophoresis; conditions: HCT116, 6.76 µg/mL, 48 h, 2% agarose gel
# Method: Both control and treated cells were incubated for 48h. Then cells of both two samples were harvested for DNA fragmentation measurements using a SIGMA DNA fragmentation imaging kit with catalogue number 06432344001. To verify the validity of the DNA of both control and cells treated with 6.76 µg/mL of chalcone 7f, we carried out the loading of all samples on 2% agarose gel containing 1 µg/mL ethidium bromide and visualized by ultraviolet transillumination.
# The DNA gel electrophoresis laddering assay in the HCT116 cell line was performed according to the instructions of Yawata[87] with some modifications. Briefly, after 48 h of exposure of the HCT116 cancer cell line to compound 7f in Petri dishes (60 × 15 mm, Greiner), the cells were suspended in 1 ml of medium and then centrifuged at 900 rpm for 10 min. […] About 1 × 10^6 cells of HCT116 were treated with the IC50 value of compound 7f. Then, the treated cells were collected via trypsinization and washed with Dulbecco’s Phosphate Buffered Saline. Afterwards, the cells were treated with the lysis buffer (5 mM ethylenediaminetetraacetic acid (EDTA), 0.5% Triton X-100, 10 mM Tris (pH 7.4), and 150 mM NaCl) for 35 min on ice. […] At last, the fragmented DNA percentage was detected by performing gel electrophoresis using 2% agarose gel containing 0.1 μg/ml ethidium bromide (Supplementary File 1).
smiles,measurement,setting,value
"N#C/C(=C\c1cn(-c2ccccc2)nc1-c1ccc([N+](=O)[O-])cc1)C(=O)c1c[nH]c2ccccc12 [Compound 7f, (E)-2-(1H-Indole-3-carbonyl)-3-(3-(4-nitrophenyl)-1-phenyl-1H-pyrazol-4-yl)acrylonitrile]",Selectivity index (SI) = IC50 in normal cells/IC50 in tumor cells,[1]; HFB4 versus HCT116,8.4
same,IC50,"[1]; Homo sapiens, HCT-116, MTT, 48 h treatment",6.76 mg/L
same,DNA content in G2/M phase (%DIP G2/M),[2]; control 13.68%,2.55%
same,cells in S phase (%DIP S),[2]; control 41.04%,46.12%
same,cell accumulation in G1 phase (%DIP G1),[2]; control 45.28%,51.33%
same,early apoptotic induction,[3]; control 0.32%,21.38%
same,necrosis,[3]; control 1.12%,6.82%
same,effect on genomic DNA (DNA fragmentation),[4],completely deteriorated the genomic DNA; also recorded: completely degraded the genomic DNA
